Data as given in the supplement of paper PMC10307832.

Tests used:
Experiment in all cases: relative viability (nuclei count vs DMSO), 5 days (fraction); higher = more cells survive
[1] = compound: C1=CC2=NC=CN=C2C=C1/C=C/3\C(=O)NC(=O)S3 + C[C@@H](Oc1cc(-c2cnn(C3CCNCC3)c2)cnc1N)c1c(Cl)ccc(F)c1Cl [Crizotinib] (partner 1 µM)
Procedure, shortened: (§1)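 Cells from lung cancer lines were seeded into 1536-well plates and, one day later, dosed by pin tool. Treatments were either a single drug or a fixed dose of an anchor drug with five library-drug doses (not always all listed) in √10 steps. After 5 days, nuclei were stained in a one-step fixation (final 0.05% Triton X-100, 1% formaldehyde, 1 ug/ml Hoechst) and counted on 4× images, and relative viability is the treated-to-vehicle nuclei ratio, as the median of duplicate plates.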

[2] = compound: CCN1CCN(c2ccc(Nc3cc(N(C)C(=O)Nc4c(Cl)c(OC)cc(OC)c4Cl)ncn3)cc2)CC1 [BGJ398] + CCNC(=O)c1noc(-c2cc(C(C)C)c(O)cc2O)c1-c1ccc(CN2CCOCC2)cc1 [Luminespib] (partner 0.01 µM)
Procedure, shortened: as §1

[3] = compound: CCN1CCN(c2ccc(Nc3cc(N(C)C(=O)Nc4c(Cl)c(OC)cc(OC)c4Cl)ncn3)cc2)CC1 [BGJ398] + CC1(C)CCC(c2ccc(Cl)cc2)=C(CN2CCN(c3ccc(C(=O)NS(=O)(=O)c4ccc(N[C@H](CCN5CCOCC5)CSc5ccccc5)c(S(=O)(=O)C(F)(F)F)c4)cc3)CC2)C1 [Navitoclax] (partner 0.5 µM)
Procedure, shortened: as §1

[4] = compound: CCN1CCN(c2ccc(Nc3cc(N(C)C(=O)Nc4c(Cl)c(OC)cc(OC)c4Cl)ncn3)cc2)CC1 [BGJ398] + Cc1nc(Nc2ncc(C(=O)Nc3c(C)cccc3Cl)s2)cc(N2CCN(CCO)CC2)n1 [Dasatinib] (partner 0.075 µM)
Procedure, shortened: as §1

| Cell Line | relative viability ([1]; first compound 0.02 µM) | relative viability ([1]; first compound 0.06325 µM) | relative viability ([1]; first compound 0.2 µM) | relative viability ([1]; first compound 0.6325 µM) | relative viability ([1]; first compound 2 µM) | relative viability ([2]; first compound 0.01 µM) | relative viability ([2]; first compound 0.03162 µM) | relative viability ([2]; first compound 0.1 µM) | relative viability ([2]; first compound 0.3162 µM) | relative viability ([2]; first compound 1 µM) | relative viability ([3]; first compound 0.01 µM) | relative viability ([3]; first compound 0.03162 µM) | relative viability ([3]; first compound 0.1 µM) | relative viability ([3]; first compound 0.3162 µM) | relative viability ([3]; first compound 1 µM) | relative viability ([4]; first compound 0.01 µM) | relative viability ([4]; first compound 0.03162 µM) | relative viability ([4]; first compound 0.1 µM) | relative viability ([4]; first compound 0.3162 µM) | relative viability ([4]; first compound 1 µM) |
| --- | --- | --- | --- | --- | --- | --- | --- | --- | --- | --- | --- | --- | --- | --- | --- | --- | --- | --- | --- | --- |
| HCC-44 | 0.721 | 0.808 | 0.807 | 0.836 | 0.575 | 0.974 | 1.11 | 1.32 | 1.09 | 0.942 | 0.797 | 0.91 | 1.13 | 1.06 | 0.866 | – | – | – | – | – |
| HCC-78 | 0.341 | 0.309 | 0.296 | 0.337 | 0.25 | – | – | – | – | – | 0.734 | 0.751 | 0.935 | 0.879 | 0.823 | 0.385 | 0.375 | 0.34 | 0.388 | 0.362 |
| HCC-366 | 0.441 | 0.306 | 0.605 | 0.441 | 0.409 | – | – | – | – | – | 1.01 | 1.18 | 0.995 | 1.02 | 1.1 | 0.626 | 0.681 | 0.793 | 0.6 | 0.558 |
| HCC-827 | 0.89 | 0.905 | 0.933 | 0.804 | 1.03 | 0.432 | – | 0.405 | 0.268 | 0.736 | 0.935 | – | 1.03 | 1.02 | 1.02 | 0.223 | 0.123 | 0.329 | 0.249 | 0.325 |
| HOP-62 | 1.1 | 0.953 | 1.03 | 0.93 | 0.911 | 0.89 | 0.919 | 1.03 | 0.868 | 0.897 | 0.915 | 1 | 1.1 | 1.02 | 1.01 | 0.745 | 0.656 | 0.678 | 0.733 | 0.57 |
| IA-LM | 0.654 | – | 0.857 | 0.998 | 0.718 | – | – | – | – | – | 0.614 | 0.798 | 0.764 | 0.724 | 0.917 | – | – | – | – | – |
| LC-2-ad | 0.412 | 0.363 | 0.402 | 0.44 | 0.715 | 0.958 | 1.05 | 0.978 | 1.04 | 1.07 | 0.366 | 0.575 | 0.519 | 0.612 | 0.392 | 0.572 | 0.756 | 0.566 | 0.538 | 0.433 |
| LCLC-97TM1 | 0.391 | 0.344 | 0.375 | 0.354 | 0.218 | 0.703 | 0.859 | 0.857 | 0.823 | 0.797 | 0.315 | 0.271 | 0.41 | 0.683 | 0.646 | 0.671 | 0.92 | 0.773 | 0.646 | 0.921 |
| LCLC-103H | 1.08 | 0.943 | 1.06 | 1.03 | 0.925 | 0.982 | 0.961 | 1.07 | 0.931 | 0.708 | – | – | – | – | – | 0.471 | 0.446 | 0.447 | 0.487 | 0.381 |
| LK-2 | 0.311 | 0.252 | 0.236 | 0.22 | 0.235 | 0.18 | 0.16 | 0.169 | 0.177 | 0.172 | 0.72 | 0.733 | 0.726 | 0.529 | 0.317 | 0.286 | 0.248 | 0.163 | 0.203 | 0.179 |
| NCI-H358 | 0.732 | 0.568 | 0.561 | 0.551 | 0.573 | 0.449 | 0.268 | 0.394 | 0.372 | 0.289 | – | – | – | – | – | 0.145 | 0.154 | 0.135 | 0.169 | 0.205 |
| NCI-H522 | – | – | – | – | – | 1.21 | 1.4 | 1.09 | 0.99 | 1.04 | – | – | – | – | – | 0.641 | 0.837 | 0.785 | 0.779 | 0.76 |
| NCI-H650 | 0.805 | 0.707 | 0.627 | 0.714 | 0.652 | 0.803 | 0.913 | 0.784 | 0.84 | 0.98 | – | – | – | – | – | 0.414 | 0.515 | 0.526 | 0.45 | 0.401 |
| NCI-H661 | 0.87 | 0.809 | 0.945 | 1 | 0.987 | 0.926 | 0.936 | 0.937 | 0.851 | 0.852 | – | – | – | – | – | 0.835 | 0.854 | 0.897 | 0.79 | 0.746 |
| NCI-H1299 | 0.955 | 1.03 | 0.932 | 0.89 | 0.986 | – | – | – | – | – | 1.06 | 1.06 | 1.03 | 1.03 | 1.06 | – | – | – | – | – |
| NCI-H1395 | – | – | – | – | – | 0.63 | 0.661 | 0.665 | 0.557 | 0.415 | 1.08 | 1.36 | 1.13 | 0.996 | 0.848 | 0.41 | 0.397 | 0.363 | 0.379 | 0.313 |
| NCI-H1563 | 0.842 | 0.898 | 0.86 | 0.861 | 0.831 | 0.492 | 0.525 | 0.499 | 0.556 | 0.544 | – | – | – | – | – | 0.461 | 0.491 | 0.432 | 0.391 | 0.329 |
| NCI-H1623 | – | – | – | – | – | 0.544 | 0.434 | 0.501 | 0.472 | 0.483 | – | – | – | – | – | 0.586 | 0.525 | 0.564 | 0.525 | 0.478 |
| NCI-H1703 | 0.638 | 0.701 | 0.656 | 0.811 | 0.674 | – | – | – | – | – | 0.823 | 1.39 | 0.989 | 1.14 | 0.964 | – | – | – | – | – |
| NCI-H1793 | – | – | – | – | – | 0.167 | 0.229 | 0.175 | 0.163 | 0.196 | 0.417 | – | 0.391 | 0.251 | 0.326 | 0.286 | 0.398 | 0.403 | 0.316 | 0.276 |
| NCI-H2342 | – | – | – | – | – | 0.732 | 0.701 | 0.96 | 0.754 | 0.746 | – | – | – | – | – | 0.321 | 0.33 | 0.334 | 0.318 | 0.295 |
| SW 900 | – | – | – | – | – | 0.133 | 0.201 | 0.175 | 0.167 | 0.153 | – | – | – | – | – | 0.448 | 0.388 | 0.352 | 0.383 | 0.232 |
